Measured values: ChEMBL document CHEMBL3044833, “Anticonvulsant activity of 3,5-dimethylpyrazole derivatives in animal models” (Med Chem Res, 2011)
Activity calls are given as the source filed them. No cut-off for these calls is given here.

Key:
Mus musculus [1] = assay: Anticonvulsant activity in Mus musculus Balb/c (mouse) assessed as increase in latency to seizure at 100 mg/kg, ip pretreated 30 min before pentylenetetrazol challenge by pentylenetetrazol test; assay type: functional, organism-based; parameters: dose 100 mg/kg
Mus musculus [2] = assay: Anticonvulsant activity in Mus musculus Balb/c (mouse) assessed as inhibition of pentylenetetrazol-induced mortality at 100 mg/kg, ip pretreated 30 min before pentylenetetrazol challenge by pentylenetetrazol test; assay type: functional, organism-based; parameters: dose 100 mg/kg
Mus musculus [3] = assay: Anticonvulsant activity in Mus musculus Balb/c (mouse) assessed as decrease in severity of seizure at 100 mg/kg, ip pretreated 30 min before pentylenetetrazol challenge by pentylenetetrazol test; assay type: functional, organism-based; parameters: dose 100 mg/kg
Mus musculus [4] = assay: Anticonvulsant activity in Mus musculus Balb/c (mouse) assessed as increase in latency to seizure at 150 to 200 mg/kg, ip pretreated 30 min before pentylenetetrazol challenge by pentylenetetrazol test; assay type: functional, organism-based
Mus musculus [5] = assay: Anticonvulsant activity in Mus musculus Balb/c (mouse) assessed as effect on severity of seizure at 150 to 200 mg/kg, ip pretreated 30 min before pentylenetetrazol challenge by pentylenetetrazol test; assay type: functional, organism-based
Mus musculus [6] = assay: Anticonvulsant activity in Mus musculus Balb/c (mouse) assessed as inhibition of pentylenetetrazol-induced mortality at 150 to 200 mg/kg, ip pretreated 30 min before pentylenetetrazol challenge by pentylenetetrazol test; assay type: functional, organism-based
Mus musculus [7] = assay: Anticonvulsant activity in Mus musculus Balb/c (mouse) assessed as effect on latency of tonic hind limb extension at 100 mg/kg, ip measured after 30 min by maximal electroshock seizure test; assay type: functional, organism-based; parameters: dose 100 mg/kg; settings: Hindlimb
Mus musculus [8] = assay: Anticonvulsant activity in Mus musculus Balb/c (mouse) assessed as effect on maximal electroshock-induced mortality rate 100 mg/kg, ip measured after 30 min; assay type: functional, organism-based; parameters: dose 100 mg/kg
Mus musculus [9] = assay: Anticonvulsant activity in Mus musculus Balb/c (mouse) assessed as decrease in duration of tonic hind limb extension at 100 mg/kg, ip measured after 30 min by maximal electroshock seizure test; assay type: functional, organism-based; parameters: dose 100 mg/kg; settings: Hindlimb
Mus musculus [10] = assay: Toxicity in Mus musculus Balb/c (mouse) assessed as duration of spike-wave discharges at 150 mg/kg, ip measured for 2 hr by EEG recordings (reference value: 359.8 +/- 33.5 sec); assay type: organism-based; parameters: dose 150 mg/kg, route intraperitoneal; settings: in vivo
Mus musculus [11] = assay: Toxicity in Mus musculus Balb/c (mouse) assessed as duration of spike-wave discharges at 100 mg/kg, ip measured for 2 hr by EEG recordings (reference value: 359.8 +/- 33.5 sec); assay type: organism-based; parameters: dose 100 mg/kg, route intraperitoneal; settings: in vivo
Mus musculus [12] = assay: Anticonvulsant activity in Mus musculus Balb/c (mouse) assessed as decrease in severity of seizure at 150 to 200 mg/kg, ip pretreated 30 min before pentylenetetrazol challenge by pentylenetetrazol test; assay type: functional, organism-based

Row | Structure (SMILES) | Activity (Mus musculus [1]) | inhibition (Mus musculus [2]) | inhibition (Mus musculus [3]) | Activity (Mus musculus [4]) | Activity (Mus musculus [5]) | inhibition (Mus musculus [6]) | Activity (Mus musculus [7]) | Activity (Mus musculus [8]) | inhibition (Mus musculus [9]) | Time (Mus musculus [10]) [s] | Time (Mus musculus [11]) [s] | inhibition (Mus musculus [12])
1 | Cc1n[nH]c(C)c1NC(=O)c1cccnc1 | Active | Active | Active | – | – | – | – | – | – | – | – | –
2 | Cc1n[nH]c(C)c1/N=C/c1ccccc1O | Active | Active | Active | – | – | – | – | – | – | – | – | –
3 | Cc1nn(C(=O)c2ccc(Cl)cc2)c(C)c1NC(=O)c1ccc(Cl)cc1 | Active | Active | Active | – | – | – | – | – | – | – | – | –
4 | Cc1n[nH]c(C)c1/N=C/c1ccc(O)cc1 | Active | Active | Active | – | – | – | – | – | – | – | – | –
5 | Cc1n[nH]c(C)c1NC(=O)c1ccncc1 | Active | Active | Active | – | – | – | – | – | – | – | – | –
6 | COc1ccc(C(=O)Nc2c(C)nn(C(=O)c3ccc(OC)cc3)c2C)cc1 | Active | Active | Active | Active | inactive | inactive | – | – | – | – | – | –
7 | Cc1nn(C(=O)c2ccc(F)cc2)c(C)c1NC(=O)c1ccc(F)cc1 | Active | Active | Active | – | – | – | inactive | inactive | Active | – | – | –
8 | Cc1n[nH]c(C)c1/N=C/c1c(Cl)cccc1Cl | Active | Active | Active | – | – | – | inactive | inactive | Active | – | – | –
9 | Cc1ccc(C(=O)Nc2c(C)nn(C(=O)c3ccc(C)cc3)c2C)cc1 | Active | Active | Active | – | – | – | – | – | – | – | – | –
10 | Cc1nn(C(=O)c2c(Cl)cccc2Cl)c(C)c1NC(=O)c1c(Cl)cccc1Cl | Active | Active | Active | Active | – | Active | – | – | – | 337.5 | 300 | Active
11 | CCC1(C)CC(=O)NC1=O (configuration not stated) | Active | Active | Active | – | – | – | – | – | – | – | – | –
